Laboratory results published in US20240360178A1, “MACROCYCLIC IMMUNOMODULATORS” (Bristol-Myers Squibb Company, priority 2021, published 2024).
pIC50: −log10 of the molar value. Positions of bridges follow the written chain, without caps; N, C: chain ends. Non-standard residues stand in square brackets, D forms with d. Residues, ends and D or L forms follow the SMILES beside them. Bip = N[C@@H](Cc1ccc(-c2ccccc2)cc1)C(=O)O; Phe(3-Cl) = N[C@@H](Cc1cccc(Cl)c1)C(=O)O; NMeF = CN[C@@H](Cc1ccccc1)C(=O)O; dDab = NCC[C@@H](N)C(=O)O; NMeA = CN[C@@H](C)C(=O)O; Orn = NCCC[C@H](N)C(=O)O; Dab = NCC[C@H](N)C(=O)O

Biological target: T1, human PD-1 (Jurkat-PD-1 cells) / PE-labeled human PD-L1-Ig (Homo sapiens, UniProt Q15116)
T1 construct: expressed in transfected cells; host or cells: Jurkat cell line over-expressing human PD-1
Experiment: Jurkat-PD-1 Cell Binding High-Content Screening Assay (CBA); Jurkat hPD1-PDL1 assay
Settings: Jurkat cell line over-expressing human PD-1; PE-labeled PD-L1-Ig 20 nM final; compound incubated 2 hours at 37° C.; read-out: Jurkat HPD1-PDL1 IC50
Outline: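 Cell binding by imaging: Jurkat line stably over-expressing human PD-1, compound pre-exposure 2 h at 37° C, PE-conjugated PD-L1-Ig 20 nM final, medium DMEM containing 10% FCS.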

T1 sequence (Q15116 25-288): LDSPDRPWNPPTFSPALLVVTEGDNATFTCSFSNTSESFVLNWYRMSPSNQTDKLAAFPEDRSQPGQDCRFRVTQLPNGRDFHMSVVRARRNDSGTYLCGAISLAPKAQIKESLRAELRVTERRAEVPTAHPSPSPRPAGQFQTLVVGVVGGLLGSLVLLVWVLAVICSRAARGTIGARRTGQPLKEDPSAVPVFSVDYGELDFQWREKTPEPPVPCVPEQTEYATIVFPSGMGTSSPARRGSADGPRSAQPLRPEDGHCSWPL

SMILES | pIC50
CC(C)C[C@@H]1NC(=O)[C@H](Cc2c[nH]c3ccccc23)NC(=O)[C@H](CC(=O)O)NC(=O)[C@H](Cc2ccc(O)cc2)NC(=O)[C@H](Cc2ccccc2)NC(=O)CSC[C@@H](C(=O)N[C@@H](C)C(N)=O)NC(=O)[C@H](CO)NC(=O)[C@H](C(C)C)NC(=O)[C@H](CC(C)C)NC(=O)[C@H](CC(N)=O)NC(=O)[C@H]2CCCN2C(=O)[C@@H](CCN)NC(=O)[C@H](C(C)C)NC(=O)[C@H](Cc2ccc(-c3ccccc3)cc2)NC1=O [Example 1195] ({CH2CO}-FYDWL[Bip]V[dDab][dP]NLVSCA-NH2; thioether N-14) | 6.43
CC(C)C[C@@H]1NC(=O)[C@H](CCN)NC(=O)[C@H](Cc2ccccc2)N(C)C(=O)[C@H](C)N(C)C(=O)[C@H](CCCNC(=N)N)NC(=O)[C@H](Cc2ccc(-c3ccccc3)cc2)NC(=O)[C@H](C(C)C)NC(=O)[C@H](Cc2c[nH]c3ccccc23)NC(=O)[C@H](CC(=O)O)NC(=O)[C@H](Cc2ccc(O)cc2)NC(=O)[C@H](Cc2cnc[nH]2)NC(=O)CSC[C@@H](C(=O)N[C@@H](C)C(N)=O)NC(=O)[C@H](CO)NC(=O)[C@H](C(C)C)NC1=O [Example 1316] ({CH2CO}-HYDWV[Bip]R[NMeA][NMeF][Dab]LVSCA-NH2; thioether N-14) | 7.10
CC(C)C[C@@H]1NC(=O)[C@H](CCN)NC(=O)[C@H](Cc2ccccc2)N(C)C(=O)[C@H](C)N(C)C(=O)[C@H](CCCNC(=N)N)NC(=O)[C@H](Cc2ccc(-c3ccccc3)cc2)NC(=O)[C@H](C(C)C)NC(=O)[C@H](Cc2c[nH]c3ccccc23)NC(=O)[C@H](CC(=O)O)NC(=O)[C@H](Cc2ccc(O)cc2)NC(=O)[C@H](Cc2cnc[nH]2)NC(=O)CSC[C@@H](C(=O)NCC(N)=O)NC(=O)[C@H](CO)NC(=O)[C@H](C(C)C)NC1=O [Example 1314] ({CH2CO}-HYDWV[Bip]R[NMeA][NMeF][Dab]LVSCG-NH2; thioether N-14) | 7.05
CC(C)C[C@@H]1NC(=O)[C@H](CCN)NC(=O)[C@H](Cc2ccccc2)N(C)C(=O)[C@H](C)N(C)C(=O)[C@H](CCCNC(=N)N)NC(=O)[C@H](Cc2ccc(-c3ccccc3)cc2)NC(=O)[C@H](C(C)C)NC(=O)[C@H](Cc2c[nH]c3ccccc23)NC(=O)[C@H](CC(=O)O)NC(=O)[C@H](Cc2ccc(O)cc2)NC(=O)[C@H](CCC(N)=O)NC(=O)CSC[C@@H](C(=O)N[C@@H](C)C(N)=O)NC(=O)[C@H]([C@@H](C)O)NC(=O)[C@H](C(C)C)NC1=O [Example 1326] ({CH2CO}-QYDWV[Bip]R[NMeA][NMeF][Dab]LVTCA-NH2; thioether N-14) | 6.82
CC(C)C[C@@H]1NC(=O)[C@H](CCCNC(=N)N)NC(=O)[C@H](Cc2ccccc2)N(C)C(=O)[C@H](C)N(C)C(=O)[C@H](CCCNC(=N)N)NC(=O)[C@H](Cc2ccc(-c3ccccc3)cc2)NC(=O)[C@H](C(C)C)NC(=O)[C@H](Cc2cccc(Cl)c2)NC(=O)[C@H](CC(=O)O)NC(=O)[C@H](Cc2ccc(O)cc2)NC(=O)[C@H](Cc2ccccc2)NC(=O)CSC[C@@H](C(=O)NCC(N)=O)NC(=O)[C@H](CO)NC(=O)[C@H](C(C)C)NC1=O [Example 1241] ({CH2CO}-FYD[Phe(3-Cl)]V[Bip]R[NMeA][NMeF]RLVSCG-NH2; thioether N-14) | 6.57
CC(C)C[C@@H]1NC(=O)[C@H](CCCN)NC(=O)[C@H](Cc2ccccc2)N(C)C(=O)[C@H](C)N(C)C(=O)[C@H](CCCNC(=N)N)NC(=O)[C@H](Cc2ccc(-c3ccccc3)cc2)NC(=O)[C@H](C(C)C)NC(=O)[C@H](Cc2c[nH]c3ccccc23)NC(=O)[C@H](CC(=O)O)NC(=O)[C@H](Cc2ccc(O)cc2)NC(=O)[C@H](CC(N)=O)NC(=O)CSC[C@@H](C(=O)N[C@@H](CO)C(N)=O)NC(=O)[C@H]([C@@H](C)O)NC(=O)[C@H](C(C)C)NC1=O [Example 1353] ({CH2CO}-NYDWV[Bip]R[NMeA][NMeF][Orn]LVTCS-NH2; thioether N-14) | 7.05
